For eleven compounds, IC50 results are on record in US20220306647A1, “NOVEL INDOLE-2-CARBOXAMIDES ACTIVE AGAINST THE HEPATITUS B VIRUS (HBV)” (AICURIS GMBH & CO. KG, priority 2019, published 2022).

Some results are limits rather than exact numbers.

The target of the assay is T1, HBV core protein (C-terminal truncated core protein, 149 amino acids of the N-terminal assembly domain, BODIPY-FL labelled) (UniProt P03146).
T1 construct: fused on or other part: A single cysteine added after residue 149, at position 150; It carries the BODIPY-FL maleimide label
T1 sequence (P03146 whole entry, the tested form may be a part): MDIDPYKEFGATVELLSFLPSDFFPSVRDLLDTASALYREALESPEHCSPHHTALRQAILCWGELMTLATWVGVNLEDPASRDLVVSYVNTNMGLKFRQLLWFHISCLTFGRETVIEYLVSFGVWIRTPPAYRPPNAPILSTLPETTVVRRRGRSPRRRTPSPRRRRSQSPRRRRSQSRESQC
Kind of assay: Biochemical capsid assembly assay (fluorescence quenching). The settings on record: assembly started with NaCl, fluorescence read after 6 min, read-out: Assembly activity. The method, then:
The screening for assembly effector activity was done based on a fluorescence quenching assay published by Zlotnick et al. (2007). The C-terminal truncated core protein containing 149 amino acids of the N-terminal assembly domain fused to a unique cysteine residue at position 150 and was expressed in E. coli using the pET expression system (Merck Chemicals, Darmstadt). Purification of core dimer protein was performed using a sequence of size exclusion chromatography steps. In brief, the cell pellet from 1 L BL21 (DE3) Rosetta2 culture expressing the coding sequence of core protein cloned NdeI/XhoI into expression plasmid pET21b was treated for 1 h on ice with a native lysis buffer (Qproteome Bacterial Protein Prep Kit; Qiagen, Hilden). After a centrifugation step the supernatant was precipitated during 2 h stirring on ice with 0.23 g/ml of solid ammonium sulfate. Following further centrifugation the resulting pellet was resolved in buffer A (100 mM Tris, pH 7.5; 100 mM NaCl; 2 mM DTT) and was subsequently loaded onto a buffer A equilibrated CaptoCore 700 column (GE HealthCare, Frankfurt). The column flow through containing the assembled HBV capsid was dialyzed against buffer N (50 mM NaHCO3 pH 9.6; 5 mM DTT) before urea was added to a final concentration of 3M to dissociate the capsid into core dimers for 1.5 h on ice. The protein solution was then loaded onto a 1L Sephacryl S300 column. After elution with buffer N core dimer containing fractions were identified by SDS-PAGE and subsequently pooled and dialyzed against 50 mM HEPES pH 7.5; 5 mM DTT. To improve the assembly capacity of the purified core dimers a second round of assembly and disassembly starting with the addition of 5 M NaCl and including the size exclusion chromatography steps described above was performed. From the last chromatography step core dimer containing fractions were pooled and stored in aliquots at concentrations between 1.5 to 2.0 mg/ml at −80° C.
Immediately before labelling the core protein was reduced by adding freshly prepared DTT in a final concentration of 20 mM. After 40 min incubation on ice storage buffer and DTT was removed using a Sephadex G-25 column (GE HealthCare, Frankfurt) and 50 mM HEPES, pH 7.5. For labelling 1.6 mg/ml core protein was incubated at 4° C. and darkness overnight with BODIPY-FL maleimide (Invitrogen, Karlsruhe) in a final concentration of 1 mM. After labelling the free dye was removed by an additional desalting step using a Sephadex G-25 column. Labelled core dimers were stored in aliquots at 4° C. In the dimeric state the fluorescence signal of the labelled core protein is high and is quenched during the assembly of the core dimers to high molecular capsid structures. The screening assay was performed in black 384 well microtiter plates in a total assay volume of 10 μl using 50 mM HEPES pH 7.5 and 1.0 to 2.0 μM labelled core protein. Each screening compound was added in 8 different concentrations using a 0.5 log-unit serial dilution starting at a final concentration of 100 μM, 31.6 μM or 10 μM, In any case the DMSO concentration over the entire microtiter plate was 0.5%. The assembly reaction was started by the injection of NaCl to a final concentration of […] which induces the assembly process to approximately 25% of the maximal quenched signal. 6 min after starting the reaction the fluorescence signal was measured using a Clariostar plate reader (BMG Labtech, Ortenberg) with an excitation of 477 nm and an emission of 525 nm. As 100% and 0% assembly control HEPES buffer containing 2.5 M and 0 M NaCl was used. Experiments were performed thrice in triplicates. EC50 values were calculated by non-linear regression analysis using the Graph Pad Prism 6 software (GraphPad Software, La Jolla, USA).
For `C[C@@H](NC(=O)c1onc2c1CN(C(=O)c1cc3cc(F)c(F)cc3[nH]1)CC2)C(F)(F)F` [Example 115, 5-(5,6-difluoro-1H-indole-2-carbonyl)-N-[(2R)-1,1,1-trifluoropropan-2-yl]-4H,5H,6H,7H-[1,2]oxazolo[4,3-c]pyridine-3-carboxamide], the IC50 was less than 5 µM.
Consider `CN(C(=O)c1[nH]nc2c1CN(C(=O)c1cc3ccccc3[nH]1)CC2)C1(c2ncc(C(=O)O)cn2)CC1` [Example 56, 2-{1-[N-methyl-5-(1H-indole-2-carbonyl)-2H,4H,5H,6H,7H-pyrazolo[4,3-c]pyridine-3-amido]cyclopropyl}pyrimidine-5-carboxylic acid], for which the IC50 lay in the range of 5 to 10 µM.
Next, `O=C(NC1(COC(F)F)CC1)c1onc2c1CN(C(=O)c1cc3c(F)c(F)ccc3[nH]1)CC2` [Example 143, 5-(4,5-difluoro-1H-indole-2-carbonyl)-N-{1-[(difluoromethoxy)methyl]cyclopropyl}-4H,5H,6H,7H-[1,2]oxazolo[4,3-c]pyridine-3-carboxamide]: less than 5 µM.
Next, `CN(C(=O)c1cnn2c1CN(C(=O)c1cc3c(F)c(F)ccc3[nH]1)CC2)C1(c2ncc(C(=O)O)cn2)CC1` [Example 58, 2-{1-[N-methyl-5-(4,5-difluoro-1H-indole-2-carbonyl)-4H,5H,6H,7H-pyrazolo[1,5-a]pyrazine-3-amido]cyclopropyl}pyrimidine-5-carboxylic acid]: less than 5 µM; `O=C(O)c1cccc(C2(NC(=O)c3cnn4c3CN(C(=O)c3cc5ccccc5[nH]3)CC4)CC2)c1` [Example 32, 3-{1-[5-(1H-indole-2-carbonyl)-4H,5H,6H,7H-pyrazolo[1,5-a]pyrazine-3-amido]cyclopropyl}benzoic acid]: less than 5 µM.
The result for `O=C(NC1(COC(F)F)CC1)c1onc2c1CN(C(=O)c1cc3cc(F)c(Cl)cc3[nH]1)CC2` [Example 144, 5-(6-chloro-5-fluoro-1H-indole-2-carbonyl)-N-{1-[(difluoromethoxy)methyl]cyclopropyl}-4H,5H,6H,7H-[1,2]oxazolo[4,3-c]pyridine-3-carboxamide] reads less than 5 µM.
Turning to `CN1CCCn2nc3c(c2C1=O)CN(C(=O)c1cc2ccccc2[nH]1)CC3` [Example 139, 4-(1H-indole-2-carbonyl)-13-methyl-4,8,9,13-tetraazatricyclo[7.5.0.0^2,7]tetradeca-1,7-dien-14-one], the IC50 was less than 5 µM.
Next, `CN(C(=O)c1[nH]nc2c1CN(C(=O)c1cc3c(F)c(F)ccc3[nH]1)CC2)C1(c2ccc(C(=O)O)cc2)CC1` [Example 65, 4-{1-[N-methyl-5-(4,5-difluoro-1H-indole-2-carbonyl)-2H,4H,5H,6H,7H-pyrazolo[4,3-c]pyridine-3-amido]cyclopropyl}benzoic acid]: less than 5 µM; `C[C@@H](NC(=O)c1noc2c1CN(C(=O)c1cc3c(F)cc(F)cc3[nH]1)CC2)C(F)(F)F` [Example 112, 5-(4,6-difluoro-1H-indole-2-carbonyl)-N-[(2R)-1,1,1-trifluoropropan-2-yl]-4H,5H,6H,7H-[1,2]oxazolo[4,5-c]pyridine-3-carboxamide]: less than 5 µM.
In the case of `CN(C(=O)c1n[nH]c2c1CN(C(=O)c1cc3cc(F)c(Cl)cc3[nH]1)CC2)C1(c2ncc(C(=O)O)cn2)CC1` [Example 136, 2-{1-[N-methyl-5-(6-chloro-5-fluoro-1H-indole-2-carbonyl)-2H,4H,5H,6H,7H-pyrazolo[4,3-c]pyridine-3-amido]cyclopropyl}pyrimidine-5-carboxylic acid], the IC50 is less than 5 µM.
The result for `O=C(c1cc2ccccc2[nH]1)N1CCc2nn3c(c2C1)C(=O)N(CCN1CCOCC1)C1(CC3)CC1` [Example 134, 4′-(1H-indole-2-carbonyl)-13′-[2-(morpholin-4-yl)ethyl]-4′,8′,9′,13′-tetraazaspiro[cyclopropane-1,12′-tricyclo[7.5.0.0^2,7]tetradecane]-1′,7′-dien-14′-one] reads less than 5 µM.
